The text below walks through data of patent US20260049061A1, “SMALL MOLECULES AS KCNQ2/3 (KV7.2/3) CHANNEL ACTIVATORS AND THEIR MEDICAL USE THEREOF” (Humanwell Pharmaceutical US, Inc., priority 2024, published 2026).

Test [1] has as its system PTZ-induced epileptic model using ICR mice. As to the kind of experiment: PTZ-induced epilepsy model in ICR mice. It counts as in vivo. As to conditions: male ICR mice, 10 mg/kg oral 30 min before PTZ 100 mg/kg i.p., recorded for 30 min. Here is the method:
SPF-grade male ICR mice (22-24 g) were purchased from Human Silaike Jingda Laboratory Animal Co. Ltd., China and sent to the housing facility after veterinary inspection to adapt to the rearing environment. The mice were housed in cages for 3 days under suitable conditions (temperature at 22±1° C., humidity at 40-70%, sufficient water and food, 12 hours of daylight). On the formal test day, all mice were weighed, and those meeting the weight criteria were numbered at the base of their tails. […] Animals were orally administered compound 34 (10 mg/kg) 30 min before the i.p. injection of PTZ (100 mg/kg, Sigma, USA) for epilepsy modeling. The seizure response of the mice was evaluated based on the epilepsy grading criteria. The latency and incidence rate of each seizure grade were recorded for 30 min. After the experiment, the test animals were euthanized using carbon dioxide. The results are shown in Table 2 and FIG. 1 respectively.

Test [2] concerns formalin model using SD rats. As to the kind of experiment: 2% formalin rat model (paw licking). It counts as in vivo. Particulars: male SD rats, 10 mg/kg oral 15 min before intraplantar 2.0% formalin, paw licking monitored for 60 min. Here is the method:
SPF male SD rats (170-190 g) were purchased from Human Silaike Jingda Laboratory Animal Co. Ltd., China. The rats were housed in cages for 3 days under suitable conditions (temperature at 22±1° C., humidity at 40-70%, sufficient water and food, 12 hours of daylight). The rats with a body weight of 220-240 g were numbered for further experiments. The rats were placed in the ZH-PAN801 automated rodent behavioral tracking system (Anhui Zhenghua Biologic Apparatus Facilities) for 60 min per day for an additional 3 days.
Paw licking behavior, a correlation of spontaneous pain, was tracked using the ZH-PAN801 automated rodent behavioral tracking system that can differentiate behaviors and locomotor activity of individually housed rats. The ZH-PAN801 system consists of sensor platforms which rest on two orthogonally placed force transducers and a third fixed point attached to a base plate. Each force transducer transforms the mechanical vibrations caused by animal movement into electrical signals, which are amplified, filtered, and digitized by the ZH-PAN801 system. Characteristic movements have their own unique vibrational patterns which the ZH-PAN801 software can distinguish. The cylinder cages (75 mm (radius)×310 mm (height)) consist of two halves to sensitize detection of vibrations. Thus, the base is separate from the sides, the lid, and sits directly on the sensor platform, while the sides and the lid hang from supports on the base plate.
Rats were equipped with the force transducer 15 min before the dosing. Animals were orally administered compound 21 (10 mg/kg) 15 min before the formalin injection. Rats were administered an intraplantar injection of formalin (50 μL, 2.0%, Sigma, USA) into the dorsal surface of the hindpaw attached with the force transducer to induce acute pain and placed in the automated rodent behavioral tracking system. Paw licking behavior was monitored for 60 min using the ZH-PAN801 behavior tracking system. The duration of paw licking behavior (in minutes) was collected from two distinctive phases, the early nociceptive phase occurring 0-10 min after formalin injection and the late phase thought to be associated with central sensitization, which peaks 11-60 min after formalin injection. Treatment effects were compared to vehicles by an unpaired t-test and one-way ANOVA using Graph Pad 9.0. The results are shown in Table 3 and FIG. 2 respectively.

Test [3] concerns the target T1, KNCQ2/3 (Kv7.2/7.3) (Homo sapiens, UniProt O43525+O43526).
T1 construct: host or cells: HEK293
As to the kind of experiment: Kv7.2/7.3 (KNCQ2/3) activation assay, QPatch single concentration screen. As to conditions: increase in current over baseline, HEK293 cells with overexpressed Kv7.2/3, compound 1 μM, steady-state current at +40 mV. The format is cell-based. Here is the method:
The ability of compounds to potentiate K-currents in HEK293 cells with overexpressed KNCQ2/3 (Kv7.2/7.3) was assessed using patch clamp on the QPatch automated screening platform.
Cell Line: The HEK293 cell line with overexpressed Kv7.2/7.3 was obtained from ICE Bioscience Inc. These HEK cells have been engineered to overexpress the Kv7.2/3 ion channels.
Cell Culture: Cells were maintained in the media containing DMEM (Corning, cat. #10-013-CV), 10% FBS (Gibco, cat. #10099141C), 800 μg/mL G418 (GPC, cat. #AK108) and 200 μg/mL hygromycin B (Solarbio, cat. #H8080). The cells were incubated at 37° C. in a humidified incubator under 5% carbon dioxide. Cells were grown in 6 cm dishes to ˜80% confluency. Currents were recorded 24 hours after channel induction.
Compound Plates: Test compounds were prepared by performing serial dilutions in DMSO (Sigma cat #D4540). Final dilutions were made in external recording solution with a final DMSO concentration of 0.1% DMSO. For single concentration screens each plate had 10 μM retigabine (Selleck Chemicals, cat. #S4733) as a positive control.
Electrophysiology: External solution contained 140 mM NaCl (Sigma cat. #S5886), 3.5 mM KCl (Sigma cat. #P5405), 1 mM MgCl2·6H2O (Sigma cat. #M2393), 2 mM CaCl2·2H2O (Sigma cat. #C7902), 10 mM D-Glucose (Sigma cat. #G8270), 10 mM HEPES (Santa Cruz cat. #SC-29097A), 1.25 mM NaH2PO4·2H2O, pH was adjusted to 7.4 with NaOH. Internal solution contained 125 mM K-Aspartic (Sigma cat. #G4500), 20 mM KCl, 10 mM EGTA (Sigma cat. #E3889), 1 mM MgCl2·6H2O, 5 mM Mg-ATP (Sigma cat. #A9187), 5 mM HEPES, pH was adjusted to 7.2 with KOH.
On the day of the experiment cells are washed with the external solution and harvested with 0.25% Trypsin EDTA (Gibco cat. #25200-072). Cells were then centrifuged at 1000 rpm/min for 5 minutes and resuspended in the external solution at ˜2.5×10^6 cells/mL. The cells were stirred with an equilibrium sharker for 20 minutes at room temperature before experiments started.
Potassium channel activity was measured on the QPatch 48X (Sophion Bioscience) using QPlates with 48-wells plate. The KCNQ current was recorded when the voltage was held at −80 mV for 3s, then stepped to −30 mV for 500 ms and back to […]. The process was repeated with an increment of 10 mV between −80 mV and +40 mV. Each cell was taken as an independent experiment and only one compound was tested per well.
Single Concentration Screen: Baseline conditions were obtained by recording 5 sweeps in the external solution only, this was repeated for three applications of the external solution. The effect of test compounds on elicited current was then assessed by recording 5 sweeps in the presence of a 1 μM compound solution. The steady-state current at the end of the 2 s pulse to +40 mV was measured to determine the fold increase from baseline.
On the technique in general: The patch-clamp technique gives a direct electrical read-out from membranes.

Structures are written as SMILES. Some results are limits rather than exact numbers.

With `CC(C)(CC(=O)Nc1nn2c(c1-c1ccc(F)cc1)CCCC2)C(F)(F)F` [Compound 38], in test [1], the “Latency to Racine IV Seizure” value is given as 784 s and the “Latency to Racine VI Seizure” value is 1320 s. Further, in test [2], the “% MPE (10 mpk)” value stood at 87%.

In the case of `CC(C)(CC(=O)Nc1nn2c(c1-c1ccc(F)cc1)C[C@@H](C(F)(F)F)CC2)C(F)(F)F` [Compound 24], the “% MPE (10 mpk)” value in test [2] is listed as 97%.

In the case of `O=C(CC1CC(F)(F)C1)Nc1nn2c(c1-c1ccc(F)cc1)CC(C(F)(F)F)CC2` (stereo not drawn) [Compound 32], the activity at 1 µM in test [3] is ≥ 300%.

`CC(C)CS(=O)(=O)Nc1nn2ccc(Cl)cc2c1-c1ccc(F)cc1` [Compound 62]: in test [1], the “Latency to Racine IV Seizure” value amounted to 636 s and the “Latency to Racine VI Seizure” value is reported as 1409 s. Further, the “% MPE (10 mpk)” value in test [2] is 89%.

With `CC(C)(C)CC(=O)Nc1nn2c(c1C1CCCCC1)CC(C(F)(F)F)CC2` (stereo not drawn) [Compound 15], in test [3], the activity at 1 µM is ≥ 300%.

As to `O=C(CC12CC(C1)C2)Nc1nn2c(c1-c1ccc(F)cc1)CC(C(F)(F)F)CC2` (stereo not drawn) [Compound 33], in test [3], the activity at 1 µM was ≥ 300%.

Turning to `CC(C)(C)CC(=O)Nc1nn2c(c1C1=CCCCC1)CC(C(F)(F)F)CC2` (stereo not drawn) [Compound 14], the activity at 1 µM in test [3] is 200 to 300%.

For `O=C(CCC(F)(F)F)Nc1nn2c(c1-c1ccc(F)cc1)CC(C(F)(F)F)CC2` (stereo not drawn) [Compound 34], in test [3], the activity at 1 µM fell in the range of 200 to 300%. Besides, in test [1], the “Latency to Racine IV Seizure” value worked out at 1393 s and the “Latency to Racine VI Seizure” value was found to be 1658 s. Also, the “% MPE (10 mpk)” value in test [2] stood at 65%.

As for `CCn1c(NC(=O)CC(C)(C)C)nc2c1CCCC2` [Compound 65], the activity at 1 µM in test [3] was in the range of 200 to 300%.

Consider `CC(C)(F)CC(=O)Nc1nn2c(c1-c1ccc(F)cc1)CC(C(F)(F)F)CC2` (stereo not drawn) [Compound 36], for which the activity at 1 µM in test [3] is ≥ 300%.

Turning to `C=CCN1CCn2nc(NC(=O)CC(C)(C)C)c(-c3ccc(F)cc3)c2C1` [Compound 44], the activity at 1 µM in test [3] is 100 to 200%.

As for `CC(C)(C)n1c(NC(=O)CC(C)(C)C(F)(F)F)nc2cc3c(cc21)CNC3` [Compound 58], the “% MPE (10 mpk)” value in test [2] is given as 89%.

`CC(C)(CC(=O)Nc1nn2c(c1-c1ccc(F)cc1)CC(C(F)(F)F)CC2)C(F)(F)F` (stereo not drawn) [Compound 10]: the activity at 1 µM in test [3] was ≥ 300%.

Regarding `CC(C)(C)CC(=O)Nc1nc2c(n1C1CCC1)CCCC2` [Compound 3], in test [3], the activity at 1 µM fell in the range of 100 to 200%.

For `CC(C)(C)CC(=O)Nc1nc2ncccc2n1-c1ccc(F)cc1` [Compound 60], in test [3], the activity at 1 µM fell in the range of 100 to 200%.

Turning to `CC(C)(C)CC(=O)Nc1nc2n(c1C1CCCCC1)CCCC2` [Compound 53], the activity at 1 µM in test [3] fell in the range of 100 to 200%.

Take `O=C(CC1CSC1)Nc1nn2c(c1-c1ccc(F)cc1)CC(C(F)(F)F)CC2` (stereo not drawn) [Compound 37]: the activity at 1 µM in test [3] lay in the range of 100 to 200%.

With `CC(C)(C)CC(=O)Nc1nn2c(c1-c1cccnc1)CC(C(F)(F)F)CC2` (stereo not drawn) [Compound 16], the activity at 1 µM in test [3] was 100 to 200%.

On to `CC(C)(C)CC(=O)Nc1nn2c(c1C1CCC1)CC(C(F)(F)F)CC2` (stereo not drawn) [Compound 20], for which, in test [3], the activity at 1 µM was ≥ 300%.

For `CC(C)(C)CC(=O)Nc1nn2c(c1-c1ccc(F)cc1)CC1(CC2)CC(F)(F)C1` [Compound 55], the activity at 1 µM in test [3] was ≥ 300%.

`CC(C)(C)CC(=O)Nc1nn2c(c1C1CCC1)CCCC2` [Compound 8]: the activity at 1 µM in test [3] is 200 to 300%.

As for `CC(C)(C)CC(=O)Nc1nc2n(c1-c1ccc(OC(F)(F)F)cc1)CCCC2` [Compound 54], the activity at 1 µM in test [3] lay within 200 to 300%.

Regarding `CC(C)(CC(=O)Nc1nn2c(c1-c1ccc(F)cc1)CN(C1CC1)CC2)C(F)(F)F` [Compound 47], in test [3], the activity at 1 µM was in the range of 100 to 200%.

As to `CCn1c(NC(=O)CC(C)(C)C(F)(F)F)nc2c1CCCC2` [Compound 64], the activity at 1 µM in test [3] was 100 to 200%.

Turning to `COC1CCn2nc(NC(=O)CC(C)(C)C)c(-c3ccc(F)cc3)c2C1` (stereo not drawn) [Compound 12], in test [3], the activity at 1 µM was in the range of 200 to 300%.

On to `CC(C)(C)CC(=O)Nc1nc2c(n1C(C)(C)C)CCCC2` [Compound 1], for which, in test [3], the activity at 1 µM was in the range of 100 to 200%.

On to `CC(C)(C)CC(=O)Nc1nn2c(c1-c1ccc(F)cc1)CN(C(F)(F)F)CC2` [Compound 7], for which the activity at 1 µM in test [3] fell in the range of 100 to 200%.

Regarding `CC(C)(C)CC(=O)Nc1nn2c(c1-c1ccc(F)cc1)CN(C1CC1)CC2` [Compound 43], the activity at 1 µM in test [3] was 200 to 300%.

Consider `CC1(CC(=O)Nc2nn3c(c2-c2ccc(F)cc2)CC(C(F)(F)F)CC3)CC1` (stereo not drawn) [Compound 35], for which, in test [3], the activity at 1 µM was ≥ 300%.
